Data reported in US8865206B1, “Surface modified multilayered nanostructures for dermal delivery” (Florida A&M University, priority 2010, dated 2014).

Legend:
Format in all cases: physicochemical
[1] = Entrapment efficiency using vivaspin columns; details: in NPS; unaffected by surface modification
Protocol: The NPS and NPS-OA (0.5 ml) were placed on top of the vivaspin centrifuge filter membrane and centrifuged at 4,500 rpm for fifteen (15) minutes. The amount of SP and KP present in the aqueous phase was estimated using HPLC.

[2] = In vitro drug release through porous membrane, Franz diffusion cells; details: within 24 hours of NPS application; 0.5% w/v Volpo in PBS (pH 7.4), 32° C.
Protocol: In vitro drug release studies of KP-NPS, SP-NPS, SP+KP-NPS, KP-NPS-OA, SP-NPS-OA and SP+KP-NPS-OA were performed to investigate the amount of drug released from NPS or NPS-OA. A porous membrane of MWCO at 50,000 Da (SIGMA-ALDRICH Co., St. Louis, Mo.) was used. The membrane was mounted between the donor and receiver compartments of Franz diffusion cells (N. Ghouchi Eskandar, S. Simovic, C. Prestidge, Nanoparticle coated submicron emulsions: sustained in-vitro release and improved dermal delivery of All-trans-retinol, Pharm Res, 26 (2009) 1764-1775).
The NPS dispersion was applied evenly on the surface of the membrane in the donor compartment. […] At predetermined time intervals (e.g., 1, 2, 4, 6, 8, 12, 22, 24, 48 and 72 hours), 0.5 ml samples were collected from the receiver compartment and replaced with fresh buffer solution. The samples collected from receiver compartment were analyzed for drug content using the HPLC method.

[3] = Solubility test in selected receiver fluids

Row | Compound | entrapment efficiency [1] | release of drug from NPS [2] | solubility ([3]; 0.1% w/v Volpo 20 in PBS (pH 7.4), 1 mg/ml) | solubility ([3]; 0.5% w/v Volpo 20 in PBS (pH 7.4), 1 mg/ml) | solubility ([3]; 5% w/v BSA in PBS (pH 7.4)) | solubility ([3]; SP and KP mixed together in PBS (pH 7.4) containing 10% w/v ethanol) | solubility ([3]; ethanol)
1 | Spantide II | 92.81%±2.17 | 34% | insoluble | soluble | soluble | precipitation was observed | soluble
2 | CC(C(=O)O)c1cccc(C(=O)c2ccccc2)c1 (centres unmarked) [KP, Ketoprofen] | – | > 75% | – | – | – | – | –
